The text below walks through data of DBAASP.

Converted amounts (≈) assume the structure as drawn. “And” between values parts separate entries of the source, which are not always exact repeats. Identical values can stand only once.

Usually MIC stands for the smallest concentration in the dilution series that meets the test's criterion for growth inhibition.

Among the test systems are Candida albicans; Escherichia coli 1005; Escherichia coli D21; Escherichia coli ML-35; Bacillus megaterium Bm11; Enterococcus faecalis; Bacillus subtilis; Escherichia coli O111:B4; Corynebacterium xerosis; Listeria monocytogenes; Escherichia coli UB1005; Streptococcus mitis.
Assay in all cases: ≥ marks a high value that may be exact or a test limit, other limits are often not marked, values filed in µg/mL are converted to µM
Test [1] deals with Salmonella enterica subsp. enterica serovar Pullorum ATCC 7913.
In test [2] the test system is Staphylococcus aureus ATCC 29213.
The test system of test [3] is Candida albicans CGMCC 2.2086.
In test [4] the test system is Candida krusei CGMCC 2.1857.
The subject of test [5] is Candida tropicalis CGMCC 2.1975.
The subject of test [6] is Staphylococcus aureus ATCC 25923.
Test [7] concerns Escherichia coli ATCC 25922.
The test system of test [8] is Salmonella enterica subsp. enterica serovar Typhimurium ATCC 14028.
Test [9] relates to Staphylococcus epidermidis ATCC 12228.
For test [10], the system named is Candida parapsilosis CGMCC 2.3989.
Test [11] deals with Staphylococcus aureus ATCC 43300.
The subject of test [12] is Serratia marcescens ATCC 8100.
The test system of test [13] is Staphylococcus aureus SAP 0017.
Test [14] has as its system Pseudomonas aeruginosa H103.
The test system of test [15] is Staphylococcus aureus K147.
Test [16] has as its system Staphylococcus epidermidis.
Test [17] concerns Salmonella typhimurium C610.
Test [18] relates to Enterococcus faecalis ATCC 29212.
The test system of test [19] is Pseudomonas aeruginosa K799.
Test [20] concerns Staphylococcus epidermidis C621.
The test system of test [21] is Streptococcus pneumoniae ATCC 49619.
The test system of test [22] is Salmonella enterica subsp. enterica serovar Typhimurium ATCC 14028s.
The test system of test [23] is Streptococcus pyogenes ATCC 19615.
Test [24] relates to Escherichia coli K12 MG1655.

In the case of `CC[C@H](C)[C@H](N)C(=O)N[C@H](C(=O)N[C@@H](CCCN=C(N)N)C(=O)N[C@@H](CCCN=C(N)N)C(=O)N[C@H](C(=O)N[C@@H](CCCN=C(N)N)C(=O)N[C@@H](CCCN=C(N)N)C(=O)N[C@H](C(=O)N[C@H](C(N)=O)[C@@H](C)CC)[C@@H](C)CC)[C@@H](C)CC)[C@@H](C)CC` [IIRRIRRII], the MIC in test [1] was at least 32 µM; in test [2] it was 64 µM (≈ 77.3 µg/mL); in test [3] it was at least 64 µM; in test [4], 16 µM (≈ 19.3 µg/mL); in [5], 4 µM (≈ 4.83 µg/mL); against Candida albicans, above 64 µM. The MIC is above 64 µM in test [6]; 32 µM and 64 µM in test [7]; 64 µM (≈ 77.3 µg/mL) in test [8]; 64 µM (≈ 77.3 µg/mL) in test [9]; at least 64 µM in [10]; 64 µM (≈ 77.3 µg/mL) in test [11]. For the same molecule, the MIC against Escherichia coli 1005 was determined as 16 µM (≈ 19.3 µg/mL).

Take `CC(C)C[C@H](NC(=O)[C@H](Cc1ccc(O)cc1)NC(=O)[C@@H]1CCCN1C(=O)[C@@H]1CCCN1C(=O)[C@H](CCCN=C(N)N)NC(=O)[C@@H]1CCCN1C(=O)[C@H](CCCCN)NC(=O)[C@H](CCCCN)NC(=O)[C@@H](N)CCCCN)C(=O)N1CCC[C@H]1C(=O)N[C@@H](CCCN=C(N)N)C(=O)N1CCC[C@H]1C(=O)N[C@@H](CCCN=C(N)N)C(=O)N1CCC[C@H]1C(=O)N1CCC[C@H]1C(=O)O` [KKKPRPPYLPRPRPP]: the MIC in test [12] was 8 µM (≈ 14.6 µg/mL); with Escherichia coli D21 it was 1 µM (≈ 1.83 µg/mL); in the test on Escherichia coli ML-35 it was 2 µM (≈ 3.65 µg/mL); in test [8], 0.5 µM (≈ 0.914 µg/mL); in [9] it was above 64 µM; against Bacillus megaterium Bm11, 16 µM (≈ 29.2 µg/mL).

Take `CC[C@H](C)[C@H](NC(=O)[C@H](CC(C)C)NC(=O)[C@H](C)NC(=O)[C@@H]1CCCN1C(=O)[C@H](CC(C)C)NC(=O)CNC(=O)[C@@H](NC(=O)[C@@H](NC(=O)[C@H](CC(C)C)NC(=O)[C@@H](NC(=O)[C@@H](NC(=O)[C@H](CC(C)C)NC(=O)[C@@H](NC(=O)[C@H](C)NC(=O)CNC(=O)[C@@H](NC(=O)CNC(=O)[C@H](CCCCN)NC(=O)[C@H](CCCCN)NC(=O)[C@H](CCCCN)NC(=O)[C@H](Cc1ccccc1)NC(=O)[C@H](CC(C)C)NC(=O)[C@H](CCCCN)NC(=O)[C@H](Cc1c[nH]c2ccccc12)NC(=O)[C@@H](N)CCCCN)[C@@H](C)O)C(C)C)[C@@H](C)O)C(C)C)[C@@H](C)O)[C@@H](C)O)C(=O)N[C@@H](CO)C(=O)O` [KWKLFKKKGTGAVLTVLTTGLPALIS]: the MIC in [13] is 11.5 µM (≈ 32 µg/mL); in test [14], 5.77 µM (≈ 16 µg/mL); in test [15] it was 11.5 µM (≈ 32 µg/mL); in test [16], 5.77 µM (≈ 16 µg/mL); against Enterococcus faecalis, at least 46.2 µM; in the test with Bacillus subtilis, 5.77 µM (≈ 16 µg/mL). In addition, the MIC (against Escherichia coli O111:B4; in [17]) was 2.89 µM (≈ 8 µg/mL) in each case.

On to `CC[C@H](C)[C@H](NC(=O)[C@H](CC(C)C)NC(=O)[C@H](C)NC(=O)[C@@H]1CCCN1C(=O)[C@H](CC(C)C)NC(=O)[C@H](C)NC(=O)[C@@H](NC(=O)[C@@H](NC(=O)[C@@H](NC(=O)[C@@H](NC(=O)[C@H](CCCCN)NC(=O)[C@H](CCCCN)NC(=O)[C@H](CC(C)C)NC(=O)[C@@H](NC(=O)[C@H](CCCCN)NC(=O)[C@@H](NC(=O)[C@H](CC(C)C)NC(=O)[C@H](CC(N)=O)NC(=O)[C@H](CCCCN)NC(=O)[C@@H](NC(=O)[C@H](Cc1ccccc1)NC(=O)[C@H](CO)NC(=O)[C@H](CCCCN)NC(=O)[C@H](Cc1c[nH]c2ccccc12)NC(=O)[C@@H](N)CCCCN)[C@@H](C)CC)[C@@H](C)O)C(C)C)C(C)C)C(C)C)[C@@H](C)O)[C@@H](C)O)C(=O)N[C@@H](CO)C(=O)O` [KWKSFIKNLTKVLKKVVTTALPALIS], for which the MIC in [13] was found to be 2.73 µM (≈ 8 µg/mL); in test [14], 5.47 µM (≈ 16 µg/mL); in test [15], 5.47 µM (≈ 16 µg/mL); in test [16], 5.47 µM (≈ 16 µg/mL); against Enterococcus faecalis, 21.9 µM (≈ 64 µg/mL); in the test on Bacillus subtilis, 2.73 µM (≈ 8 µg/mL). In addition, the MIC (in the test with Escherichia coli O111:B4; in test [17]) was 2.73 µM (≈ 8 µg/mL) each time.

For `CC[C@H](C)[C@H](NC(=O)[C@H](CCCN=C(N)N)NC(=O)[C@H](CS)NC(=O)[C@H](CC(C)C)NC(=O)[C@@H](N)CCCN=C(N)N)C(=O)N[C@H](C(=O)N1CCC[C@H]1C(=O)N[C@H](C(=O)N[C@H](C(=O)N[C@@H](CCCN=C(N)N)C(=O)N[C@H](C(=O)N[C@@H](CS)C(=O)N[C@@H](CCCN=C(N)N)C(=O)O)C(C)C)[C@@H](C)CC)C(C)C)C(C)C` [RLCRIVPVIRVCR], the MIC was 1.26 µM (≈ 2 µg/mL) against Corynebacterium xerosis; 20.2 µM (≈ 32 µg/mL) in test [18]; 20.2 µM (≈ 32 µg/mL) in [19]; 10.1 µM (≈ 16 µg/mL) in test [20]; at least 40.4 µM in test [21]; 2.53 µM (≈ 4 µg/mL) in the test with Listeria monocytogenes. In addition, the MIC in test [6] is above 40.4 µM; in test [22] it was at least 40.4 µM; against Escherichia coli UB1005, 10.1 µM (≈ 16 µg/mL); in test [23] it was 20.2 µM (≈ 32 µg/mL); with Streptococcus mitis it was 1.26 µM (≈ 2 µg/mL).

As for `NC(=O)[C@H](CCCN=C(N)N)NC(=O)[C@H](Cc1c[nH]c2ccccc12)NC(=O)[C@H](Cc1c[nH]c2ccccc12)NC(=O)[C@H](CCCN=C(N)N)NC(=O)[C@H](CCCN=C(N)N)NC(=O)[C@H](Cc1c[nH]c2ccccc12)NC(=O)[C@H](CCCN=C(N)N)NC(=O)[C@H](CCCN=C(N)N)NC(=O)[C@H](Cc1c[nH]c2ccccc12)NC(=O)[C@H](Cc1c[nH]c2ccccc12)NC(=O)[C@@H](N)CCCN=C(N)N` [RWWRRWRRWWR], the MIC in test [1] stood at 4 µM (≈ 7.54 µg/mL); in test [2], 4 µM (≈ 7.54 µg/mL); in [4], 2 µM (≈ 3.77 µg/mL); in [5], 2 µM (≈ 3.77 µg/mL); against Candida albicans, 4 µM (≈ 7.54 µg/mL); in test [6], 8 µM (≈ 15.1 µg/mL). Besides, the MIC was 8 µM (≈ 15.1 µg/mL) in test [8]; 4 µM (≈ 7.54 µg/mL) in [9]; 16 µM (≈ 30.2 µg/mL) in test [10]; 4 µM (≈ 7.54 µg/mL) in [11]; 8 µM (≈ 15.1 µg/mL) in the test with Escherichia coli 1005.

In the case of `CC(C)C[C@H](NC(=O)[C@H](Cc1ccccc1)NC(=O)[C@H](CCCCN)NC(=O)[C@@H](N)CO)C(=O)N[C@@H](CO)C(=O)N[C@@H](CCCCN)C(=O)N[C@@H](CCCCN)C(=O)N1CCC[C@H]1C(=O)N[C@@H](CCCCN)C(=O)N[C@@H](CCCCN)C(=O)N[C@@H](CC(C)C)C(=O)N[C@@H](Cc1ccccc1)C(=O)N[C@@H](Cc1c[nH]c2ccccc12)C(=O)N[C@@H](Cc1ccccc1)C(=O)N[C@@H](CCCN=C(N)N)C(=O)N[C@@H](C)C(=O)O` [SKFLSKKPKKLFWFRA], the MIC in [24] is at least 63.6 µM.
